In patent US20260091008A1, “DOUBLE TARGETED CONSTRUCTS TO AFFECT TUMOR KILL” (Cornell University, priority 2016, published 2026):
Values joined by “and” are separate entries in the source; they are usually repeats but may differ in a detail not shown here. Equal values may be shown once. Blank lines part the entries; values can stand above or below the molecule they belong to.

Legend:
PSMA on LNCaP cells = target: T1, PSMA on LNCaP cells (Homo sapiens, UniProt Q04609); assay: Multi-concentration competitive binding assay against 99mTc-MIP-1427 on LNCaP cells; settings: non-radioactive ligands vs 1 nM 99mTc-MIP-1427, LNCaP cells, 1 h
T1 construct: host or cells: LNCaP
Experimental: Cell Culture. […] Cell culture supplies were from Invitrogen unless otherwise noted.
In vitro determination of IC50. […] Eur J Nucl Med Mol Imaging. 2017; 44, 647-661, incorporated herein by reference. […] The cells were incubated for 1 h with 1 nM ^99mTc-MIP-1427 in serum-free RPMI-1640 medium in the presence of 0.1-10,000 nM test compounds. […] Cells were harvested from the plates and transferred to tubes for radioactive counting using a Packard Cobra II Gamma Counter. IC50 values were determined by non-linear regression using GraphPad Prism software.

HSA = HSA (Homo sapiens, UniProt P02768); assay: HSA affinity determination on immobilized-HSA microcolumns; format: binding; settings: HSA microcolumn, phosphate buffer pH 7.4, room temperature
From the text: HSA affinity determination. HSA was immobilized to HPLC-grade silica by the Schiff base method as described previously and were packed into 10 mm×2.1 mm i.d. microcolumns. See Chen J, Hage D S. Quantitative studies of allosteric effects by biointeraction chromatography: analysis of protein binding for low-solubility drugs. Anal Chem. 2006:78:2672-2683 and Matsuda R, Anguizola J, Hoy K S, Hage D S. Analysis of drug-protein interactions by high-performance affinity chromatography: interactions of sulfonyl urea drugs with normal and glycated human serum albumin. Methods Mol Biol. 2015; 1286:255-277, each of which is incorporated herein by reference. The protein content of these columns was approximately 60 mg HSA per gram of silica. See Zheng X, Podariu M, Bi C, Hage D S. Development of enhanced capacity affinity microcolumn by using a hybrid of protein cross-linking/modification and immobilization. J. Chromatogr A. 2015; 1400:82-90, incorporated herein by reference. Control microcolumns were prepared in the same manner but with no HSA being added during the immobilization step. The retention factor for each compound was measured on both an HSA microcolumn and a control column by injecting 5 μL samples that contained approximately 50 μM of the compound in 0.067M potassium phosphate buffer (pH 7.4). All samples were injected in triplicate at room temperature and at 1.0 mL/min, with the phosphate buffer used as the mobile phase. Similar injections were made with samples containing sodium nitrate, which was used as a void volume marker. Elution of the injected compounds was monitored by absorbance detection. The dissociation constant (Kd) for each compound with HSA estimated by using the measured retention factors, after correcting for any observed retention on the control column, along with the estimated content of active HSA in the column, as based on injections made with warfarin and L-tryptophan (i.e., probes for Sudlow sites I and II of HSA). See Chen J, Hage D S. Anal Chem. 2006:78:2672-2683 (cited above) and Joseph K S, Hage D S. The effects of glycation on the binding of human serum albumin to warfarin and L-tryptophan. J Pharm Biomed Anal. 2010; 53:811-818, incorporated herein by reference.

[1] = salivary glands, radioligand therapy; cited from earlier work
LNCaP cell xenografts = assay: Tissue distribution of 131I-labeled compounds in mice bearing LNCaP xenografts; settings: male, NCr-nu/nu, mouse, in vivo
Experimental: Inoculation of mice with xenografts. All animal studies were approved by the Institutional Animal Care and Use Committee of Weill Cornell Medicine and were undertaken in accordance with the guidelines set forth by the USPHS Policy on Humane Care and Use of Laboratory Animals. Animals were housed under standard conditions in approved facilities with 12 h light/dark cycles. Food and water was provided ad libitum throughout the course of the studies. Male inbred athymic nu/nu mice were purchased from The Jackson Laboratory. For inoculation in mice, LNCaP cells were suspended at 4×10^7 cells/mL in a 1:1 mixture of PBS:Matrigel (BD Biosciences). Each mouse was injected in the left flank with 0.25 mL of the cell suspension. The mice were imaged when the tumors reached approximately 200-400 mm^3, while biodistributions were conducted when tumors were in the range 100-400 mm^3.
Tissue Distribution Studies. A quantitative analysis of the tissue distribution of ^131I-labeled compounds was performed in separate groups of male NCr-nu/nu mice bearing LNCaP cell xenografts administered via the tail vein as a bolus injection (approximately 370 kBq (10 μCi)/mouse) in a volume of 0.05-0.1 mL of saline solution containing 2.5% v/v DMSO. The animals (n=3-5/time point) were euthanized by asphyxiation with CO2 at the indicated time points after injection. Tissues, including blood, heart, lungs, liver, spleen, pancreas, kidneys, stomach, large and small intestines (with contents), skeletal muscle, bone, and tumor, were dissected, excised, weighed wet (Sartorius analytical balance), and counted in a Wizard automated […] (Perkin Elmer). A 1% ID/g standard was counted with the tissue samples. Tissue time-radioactivity levels expressed as percent injected dose per gram of tissue (% ID/g) were determined. Blood pharmacokinetics were modeled as a dual compartment system using bi-exponential least-squares regression fit to the data. Regression method was implemented in MATLAB R2015b (MathWorks, Natick, MA).

[2] = in vivo; cited from earlier work

Sequence of HSA (P02768 25-609): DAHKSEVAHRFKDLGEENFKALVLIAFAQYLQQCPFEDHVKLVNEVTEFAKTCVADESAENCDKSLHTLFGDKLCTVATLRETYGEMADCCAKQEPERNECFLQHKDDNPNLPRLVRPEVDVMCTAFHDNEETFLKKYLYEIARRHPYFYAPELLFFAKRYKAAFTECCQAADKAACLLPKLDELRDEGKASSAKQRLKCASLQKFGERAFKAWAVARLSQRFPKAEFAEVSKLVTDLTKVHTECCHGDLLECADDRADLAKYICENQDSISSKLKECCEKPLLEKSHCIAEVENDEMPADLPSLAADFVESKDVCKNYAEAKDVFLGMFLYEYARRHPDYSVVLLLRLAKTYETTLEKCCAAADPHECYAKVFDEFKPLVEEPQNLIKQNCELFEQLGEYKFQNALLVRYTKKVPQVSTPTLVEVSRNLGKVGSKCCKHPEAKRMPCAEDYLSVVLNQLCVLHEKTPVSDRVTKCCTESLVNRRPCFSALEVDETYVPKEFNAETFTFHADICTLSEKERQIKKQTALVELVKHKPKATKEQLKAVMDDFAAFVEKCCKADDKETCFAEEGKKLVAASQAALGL
T1 sequence (Q04609 whole entry): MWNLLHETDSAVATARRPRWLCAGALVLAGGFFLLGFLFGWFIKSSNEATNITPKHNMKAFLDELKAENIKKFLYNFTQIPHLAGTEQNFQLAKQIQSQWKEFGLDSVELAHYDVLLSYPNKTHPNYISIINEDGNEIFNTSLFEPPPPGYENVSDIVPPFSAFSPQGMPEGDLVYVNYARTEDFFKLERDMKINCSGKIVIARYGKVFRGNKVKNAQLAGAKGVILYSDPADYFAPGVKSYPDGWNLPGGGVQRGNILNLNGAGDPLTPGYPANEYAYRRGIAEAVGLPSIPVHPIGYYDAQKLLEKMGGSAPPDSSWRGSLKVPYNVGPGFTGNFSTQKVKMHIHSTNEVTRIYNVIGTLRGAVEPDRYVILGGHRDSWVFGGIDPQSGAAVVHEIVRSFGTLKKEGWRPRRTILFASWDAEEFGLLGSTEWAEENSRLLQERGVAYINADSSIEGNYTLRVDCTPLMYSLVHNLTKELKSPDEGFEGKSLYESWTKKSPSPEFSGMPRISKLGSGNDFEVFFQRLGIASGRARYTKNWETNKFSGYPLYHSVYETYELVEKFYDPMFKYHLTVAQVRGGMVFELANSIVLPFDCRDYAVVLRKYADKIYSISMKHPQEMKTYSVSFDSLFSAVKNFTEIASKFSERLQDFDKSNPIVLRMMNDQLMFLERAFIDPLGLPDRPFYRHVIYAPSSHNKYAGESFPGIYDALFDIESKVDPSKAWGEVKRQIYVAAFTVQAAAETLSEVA

IC50 (PSMA on LNCaP cells): 15 nM | Kd (HSA): < 1000 nM | Kd for HSA (HSA): could not be eluted from the column
Molecule: O=C(O)CC[C@H](NC(=O)N[C@@H](CCC(=O)N[C@@H](CCCCNC(=O)CCCc1ccc(I)cc1)C(=O)O)C(=O)O)C(=O)O [RPS-025, (3S,7S,12S)-21-(4-iodophenyl)-5,10,18-trioxo-4,6,11,17-tetraazahenicosane-1,3,7,12-tetracarboxylic acid]

IC50 (PSMA on LNCaP cells): 4 nM | Kd (HSA): 980 nM
Molecule: O=C(O)CC[C@H](NC(=O)N[C@@H](CCCCNC(=O)CCCc1ccc(I)cc1)C(=O)O)C(=O)O [RPS-005, (((S)-1-Carboxy-5-(4-(4-iodophenyl)butanamido)pentyl)carbamoyl)-L-glutamic acid]

IC50 (PSMA on LNCaP cells): 15 nM | Kd (HSA): 11000 nM and 11200 nM
Molecule: O=C(O)CC[C@H](NC(=O)N[C@@H](CCCCNC(=O)Cc1ccc(I)cc1)C(=O)O)C(=O)O [RPS-027, (((S)-1-Carboxy-5-(2-(4-iodophenyl)acetamido)pentyl)carbamoyl)-L-glutamic acid]

Kd (HSA): 19200 nM
Molecule: O=C(O)CC[C@H](NC(=O)N[C@@H](CCCCNC(=O)Nc1ccc(I)cc1)C(=O)O)C(=O)O [RPS-001, reference compound]

IC50 (PSMA on LNCaP cells): 40 nM | Kd (HSA): 26600 nM
Molecule: O=C(O)CC[C@H](NC(=O)N[C@@H](CCCCNC(=O)CCc1ccc(I)cc1)C(=O)O)C(=O)O [RPS-026, (((S)-1-Carboxy-5-(3-(4-iodophenyl)propanamido)pentyl)carbamoyl)-L-glutamic acid]

Further lines, the molecule ahead of its results:

Molecule: O=C(O)CCC(NC(=O)N[C@@H](CCCCNC(=O)Nc1ccc([131I])cc1)C(=O)O)C(=O)O (some centres unmarked) [^131I-RPS-001]
Toxicity reported in patients [1]: dose-limiting toxicity to the salivary glands | Blood t1/2 for the distribution phase (LNCaP cell xenografts): 2.17 h | Blood t1/2 for the elimination phase (LNCaP cell xenografts): 20.38 h | Initial kidney uptake (LNCaP cell xenografts): > 100 % ID/g | Time post injection at which T/K ratio reaches 3 (LNCaP cell xenografts): ~96 h | Kidney uptake (LNCaP cell xenografts; 24 h): 65.24±22.61 % ID/g | Large intestine uptake (LNCaP cell xenografts; 24 h): 2.35±1.26 % ID/g | Spleen uptake (LNCaP cell xenografts; 24 h): 2.41±1.40 % ID/g | Tumor uptake (LNCaP cell xenografts; 24 h): 19.81±6.16 % ID/g | Kidney uptake (LNCaP cell xenografts; 96 h): 2.12±2.47 % ID/g | Tumor uptake (LNCaP cell xenografts; 96 h): 10.21±4.30 % ID/g

Molecule: (((S)-1-Carboxy-4-(4-(4-iodophenyl)butanamido)pentyl)carbamoyl)-L-glutamic acid [RPS-020]
IC50 (PSMA on LNCaP cells): 8 nM | Kd (HSA): 2100 nM

Molecule: (((S)-1-Carboxy-4-(3-(4-iodophenyl)propanamido)pentyl)carbamoyl)-L-glutamic acid [RPS-022]
IC50 (PSMA on LNCaP cells): 10 nM | Kd (HSA): 22900 nM

Molecule: O=C(O)CC[C@H](NC(=O)NC(CCCCNC(=O)c1ccc([211At])cc1)C(=O)O)C(=O)O (stereo partly drawn) [^211At-6, (2S)-2-(3-(1-carboxy-5-(4-^211At-astatobenzamido)pentyl)ureido)-pentanedioic acid]
Nephrotoxicity [2]: dose-limiting, irreversible nephrotoxicity

Molecule: (((S)-1-Carboxy-4-(2-(4-iodophenyl)acetamido)pentyl)carbamoyl)-L-glutamic acid [RPS-023]
IC50 (PSMA on LNCaP cells): 10 nM | Kd (HSA): 53200 nM

Molecule: O=C([O-])CC[C@H](NC(=O)N[C@@H](CCCCNC(=O)[C@H](Cc1ccc2ccccc2c1)NC(=O)[C@H]1CC[C@H](CNC(=O)CN2CCN(CC(=O)[O-])CCN(CC(=O)[O-])CCN(CC(=O)[O-])CC2)CC1)C(=O)[O-])C(=O)[O-].[225Ac].[H+].[H+].[H+] [^225Ac-PSMA-617]
Toxicity reported in patients [1]: severe and sustained xerostomia

Molecule: O=C(O)CCC(NC(=O)NC(CCCCNC(=O)CCCc1ccc([131I])cc1)C(=O)O)C(=O)O (centres unmarked) [^131I-RPS-005]
Kd (HSA): 890 nM | Blood activity (LNCaP cell xenografts; 24 h): 21.35±3.99 % ID/g | Heart uptake (LNCaP cell xenografts; 24 h): 4.40±0.74 % ID/g | Kidney uptake (LNCaP cell xenografts; 24 h): 39.09±2.96 % ID/g | Liver uptake (LNCaP cell xenografts; 24 h): 3.41±0.56 % ID/g | Lungs uptake (LNCaP cell xenografts; 24 h): 8.87±0.74 % ID/g | Tumor uptake (LNCaP cell xenografts; 24 h): 9.37±1.56 % ID/g | Blood activity (LNCaP cell xenografts; 96 h): 15.57±3.98 % ID/g | Tumor uptake (LNCaP cell xenografts; 96 h): 10.82±2.64 % ID/g
